From the supplement of paper PMC11451515

Test system: SEM cells
Assay: cell viability relative to DMSO control; higher = less cytotoxic
Details: 48 h
How it was run: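 Library compounds in DMSO were pin-dosed in an 11-point threefold series (47 μM to 0.79 nM) onto leukemia cells in 1536-well plates (5 μl). Plates held 500 cells/well of NOMO1 or SEM or 1000 cells/well of P12-Ichikawa, each adapted for at least four passages in each medium. Luminescence was read with CellTiter-Glo One after 48 h at 37°C. Viability means the per-plate percentage relative to DMSO wells, using cell-free wells as background.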

[1] = HPLM + 10% dialyzed FBS, 0.000781 µM
[2] = HPLM + 10% dialyzed FBS, 0.00234 µM
[3] = HPLM + 10% dialyzed FBS, 0.00702 µM
[4] = HPLM + 10% dialyzed FBS, 0.0211 µM
[5] = HPLM + 10% dialyzed FBS, 0.0632 µM
[6] = HPLM + 10% dialyzed FBS, 0.19 µM
[7] = HPLM + 10% dialyzed FBS, 0.569 µM
[8] = HPLM + 10% dialyzed FBS, 1.71 µM
[9] = HPLM + 10% dialyzed FBS, 5.12 µM
[10] = HPLM + 10% dialyzed FBS, 15.4 µM
[11] = HPLM + 10% dialyzed FBS, 46.1 µM
[12] = RPMI 5 mM glucose + 10% dialyzed FBS, 0.000781 µM
[13] = RPMI 5 mM glucose + 10% dialyzed FBS, 0.00234 µM
[14] = RPMI 5 mM glucose + 10% dialyzed FBS, 0.00702 µM
[15] = RPMI 5 mM glucose + 10% dialyzed FBS, 0.0211 µM
[16] = RPMI 5 mM glucose + 10% dialyzed FBS, 0.0632 µM
[17] = RPMI 5 mM glucose + 10% dialyzed FBS, 0.19 µM
[18] = RPMI 5 mM glucose + 10% dialyzed FBS, 0.569 µM
[19] = RPMI 5 mM glucose + 10% dialyzed FBS, 1.71 µM
[20] = RPMI 5 mM glucose + 10% dialyzed FBS, 5.12 µM
[21] = RPMI 5 mM glucose + 10% dialyzed FBS, 15.4 µM
[22] = RPMI 5 mM glucose + 10% dialyzed FBS, 46.1 µM
[23] = RPMI 5 mM glucose + 10% FBS, 0.000781 µM
[24] = RPMI 5 mM glucose + 10% FBS, 0.00234 µM
[25] = RPMI 5 mM glucose + 10% FBS, 0.00702 µM
[26] = RPMI 5 mM glucose + 10% FBS, 0.0211 µM
[27] = RPMI 5 mM glucose + 10% FBS, 0.0632 µM
[28] = RPMI 5 mM glucose + 10% FBS, 0.19 µM
[29] = RPMI 5 mM glucose + 10% FBS, 0.569 µM
[30] = RPMI 5 mM glucose + 10% FBS, 1.71 µM
[31] = RPMI 5 mM glucose + 10% FBS, 5.12 µM
[32] = RPMI 5 mM glucose + 10% FBS, 15.4 µM
[33] = RPMI 5 mM glucose + 10% FBS, 46.1 µM

SMILES | cell viability [1] | cell viability [2] | cell viability [3] | cell viability [4] | cell viability [5] | cell viability [6] | cell viability [7] | cell viability [8] | cell viability [9] | cell viability [10] | cell viability [11] | cell viability [12] | cell viability [13] | cell viability [14] | cell viability [15] | cell viability [16] | cell viability [17] | cell viability [18] | cell viability [19] | cell viability [20] | cell viability [21] | cell viability [22] | cell viability [23] | cell viability [24] | cell viability [25] | cell viability [26] | cell viability [27] | cell viability [28] | cell viability [29] | cell viability [30] | cell viability [31] | cell viability [32] | cell viability [33]
CN1C(=O)c2sccc2N(C)c2nc(Nc3ccc([S+](N)(=O)[O-])cc3)ncc21 | 94.1% | 93.2% | 103% | 102% | 89.2% | 99.6% | 88.7% | 67.8% | 21.9% | 9.56% | 3.55% | 112% | 101% | 106% | 105% | 95.6% | 91.4% | 93.7% | 63.6% | 14.8% | 8.42% | 4.39% | – | – | – | – | – | – | – | – | – | – | –
CC/C=C\C[C@H]1C(=O)CC[C@@H]1CC(=O)OC | 76% | 118% | 130% | 130% | 125% | 118% | 125% | 118% | 113% | 114% | 103% | 78% | 112% | 137% | 147% | 153% | 127% | 135% | 120% | 122% | 112% | 120% | 60.3% | 109% | 101% | 114% | 109% | 100% | 126% | 102% | 99.3% | 109% | 88.9%
CC(C)C1CCC(C(=O)N[C@H](Cc2ccccc2)C(=O)O)CC1 (stereo partly specified) | 92.5% | 93.8% | 91.7% | 108% | 71.1% | 26.3% | 82.7% | 97.6% | 85.2% | 80.3% | 78.5% | 108% | 104% | 103% | 102% | 75.4% | 21.7% | 84.3% | 88.7% | 98.5% | 93.1% | 96.8% | 108% | 94.1% | 90% | 112% | 80.9% | 21.2% | 62.7% | 85.6% | 98% | 95.4% | 77.8%
CC1(C)SCCN([S+](=O)([O-])c2ccc(OCC#CCO)cc2)[C@H]1C(=O)NO | 97.8% | 96.3% | 109% | 112% | 104% | 99.6% | 102% | 89.5% | 91.3% | 86.6% | 80.8% | 105% | 109% | 105% | 103% | 91.1% | 94.3% | 107% | 90.1% | 78.9% | 74.1% | 69.5% | 129% | 116% | 115% | 123% | 109% | 107% | 105% | 104% | 106% | 91.4% | 88.1%
CCCCCNC(=N)N/N=C/c1c[nH]c2ccc(OC)cc12 | 112% | 119% | 114% | 128% | 108% | 130% | 115% | 124% | 106% | 48% | 31.2% | 111% | 118% | 115% | 110% | 117% | 117% | 130% | 122% | 99.1% | 56.7% | 36.6% | – | – | – | – | – | – | – | – | – | – | –
NC1=NC(=O)N2CC12 (stereo unspecified) | 84.2% | 79.8% | 87.7% | 86.3% | 87.2% | 76.5% | 94.9% | 60.6% | 34.9% | 3.13% | 2.28% | 77.3% | 79.6% | 82.5% | 78.7% | 79.3% | 69.3% | 84.1% | 51.4% | 23.9% | 1.65% | 1.54% | 106% | 82.3% | 86.8% | 104% | 85.1% | 82.6% | 85.2% | 43% | 25.6% | 2.22% | 2.07%
Cc1ccc(C(=O)Nc2cccc(C(F)(F)F)c2)cc1Nc1nc(-c2cccnc2)nc2c1cnn2C | 38.9% | 83.8% | 89.1% | 87.7% | 78.7% | 95.3% | 90.5% | 75.3% | 83.9% | 59% | 53.4% | 31% | 92.1% | 109% | 83.8% | 82.8% | 97.7% | 92.1% | 81.1% | 113% | 68.5% | 62.1% | 58.7% | 103% | 104% | 102% | 85.7% | 101% | 83% | 83% | 98.4% | 56.8% | 60.6%
C=CC(=O)Nc1cc2c(Nc3ccc(F)c(Cl)c3)ncnc2cc1C#CC(C)(C)N1CCN(C)CC1 | 99.3% | 107% | 108% | 114% | 106% | 104% | 92.3% | 87.1% | 17.3% | 4.78% | 2.96% | 102% | 104% | 95.8% | 97% | 102% | 106% | 107% | 87.7% | 19.3% | 4.98% | 3.49% | 112% | 116% | 112% | 118% | 105% | 138% | 103% | 87.7% | 22.2% | 4.92% | 4.19%
C[S+](=O)([O-])Oc1ccc2c(NC(N)=O)c(C(=O)c3ccc(Cl)cc3Cl)oc2c1 | 98.3% | 103% | 107% | 109% | 109% | 104% | 110% | 117% | 129% | 120% | 120% | 82.9% | 91.6% | 102% | 94% | 97% | 103% | 105% | 92.7% | 98.2% | 92.5% | 105% | 93.7% | 95.9% | 106% | 109% | 117% | 105% | 106% | 114% | 103% | 122% | 112%
COc1ccc(CCC(=O)c2c(O)cc(O[C@@H]3O[C@H](CO)[C@@H](O)[C@H](O)[C@H]3O[C@@H]3O[C@@H](C)[C@H](O)[C@@H](O)[C@H]3O)cc2O)cc1O | 112% | 115% | 120% | 128% | 128% | 119% | 128% | 119% | 134% | 124% | 116% | – | – | – | – | – | – | – | – | – | – | – | – | – | – | – | – | – | – | – | – | – | –
C[C@]12CCC3c4ccc(O)cc4CCC3C1CCC2=O (stereo partly specified) | 70.1% | 81.6% | 88.8% | 84.5% | 91.4% | 73.6% | 62.2% | 77.8% | 71.7% | 42.2% | 58.9% | 103% | 95.4% | 98.4% | 103% | 116% | 99.6% | 80.7% | 82.8% | 93.2% | 35.6% | 71.4% | 94% | 92.3% | 96.3% | 104% | 88.9% | 106% | 82% | 80.7% | 81.2% | 64.6% | 85%
CCOC(=O)N1CCN(/[N+]([O-])=N/Oc2cc(O/N=[N+](\[O-])N3CCN(C(=O)OCC)CC3)c([N+](=O)[O-])cc2[N+](=O)[O-])CC1 | 90.7% | 86.6% | 93% | 98.6% | 117% | 115% | 122% | 74.4% | 119% | 117% | 116% | 117% | 113% | 130% | 145% | 166% | 138% | 134% | 108% | 113% | 142% | 122% | 129% | 110% | 118% | 137% | 142% | 138% | 136% | 101% | 142% | 145% | 128%
COc1cc(C(=O)NC2CCN(C)CC2)ccc1Nc1ncc2c(n1)N(C1CCCC1)CCC(=O)N2C(C)C | 81.4% | 95.1% | 119% | 104% | 105% | 112% | 6.04% | 104% | 94.8% | 59.1% | 13.5% | 83.4% | 109% | 117% | 120% | 112% | 111% | 5.18% | 102% | 96.5% | 53.8% | 60.8% | 95.4% | 106% | 119% | 130% | 119% | 120% | 6.08% | 98.1% | 96.5% | 54.2% | 55.1%
c1cc(-c2cnn3cc(-c4ccc(OCCN5CCCCC5)cc4)cnc23)ccn1 | 69.3% | 58.4% | 94.8% | 34.4% | 32.7% | 31.1% | 27.9% | 96.2% | 88.5% | 8.18% | 30.9% | 91.5% | 60.9% | 99.8% | 45.4% | 31.8% | 24% | 25.9% | 90% | 78.4% | 42.2% | 23.7% | 103% | 76.7% | 121% | 63.7% | 51.6% | 43.4% | 34.8% | 103% | 105% | 40.4% | 23.3%
Cc1ccc2nc(NCCN)c3ncc(C)n3c2c1 | 104% | 112% | 111% | 106% | 122% | 113% | 106% | 101% | 102% | 23.2% | 5.23% | 94.9% | 110% | 94.9% | 94.5% | 101% | 106% | 111% | 77.7% | 91% | 67.4% | 4.44% | 111% | 108% | 129% | 110% | 122% | 119% | 123% | 102% | 108% | 86.4% | 5.06%
